pIC50: −log10 of the molar value.
Legend:
[1] = test system: CBS; details: read-out: IC50 for CBS; cited from earlier work
[2] = molecular target: GABA AT (Rattus norvegicus, UniProt P50554); test: GABA transaminase; type: biochemical
Chain of GABA AT (P50554 28-500): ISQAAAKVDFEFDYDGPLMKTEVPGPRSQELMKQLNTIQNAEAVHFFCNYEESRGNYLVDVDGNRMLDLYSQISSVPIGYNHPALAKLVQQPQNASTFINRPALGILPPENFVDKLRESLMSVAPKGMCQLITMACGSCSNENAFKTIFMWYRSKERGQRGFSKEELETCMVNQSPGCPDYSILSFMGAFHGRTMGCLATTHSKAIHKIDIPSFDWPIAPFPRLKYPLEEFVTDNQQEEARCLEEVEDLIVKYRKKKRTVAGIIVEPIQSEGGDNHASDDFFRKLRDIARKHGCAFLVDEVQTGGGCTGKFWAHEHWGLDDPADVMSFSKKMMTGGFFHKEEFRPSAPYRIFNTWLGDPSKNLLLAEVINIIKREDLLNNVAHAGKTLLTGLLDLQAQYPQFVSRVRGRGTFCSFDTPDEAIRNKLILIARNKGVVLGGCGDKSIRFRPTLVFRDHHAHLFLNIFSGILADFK

## NOCC(=O)O [AOAA, aminooxyacetic acid]
[1]
  pIC50: ~4.92
[2]; IC50 GABA AT vs IC50 CBS
  fold better inhibitor of GABA AT than of CBS: 33 fold
[2]; read-out: IC50 for GABA AT, rat brain homogenate
  pIC50: ~6.44

— publication PMC4850510 (ACS Central Science, 2016)
